From publication PMC5601359 (Journal of Medicinal Chemistry, 2017)
Like-named read-outs stand apart in the source and are kept apart here. Values belong to the molecule of their own block, whether it stands above or below them.

Assays:
[1] = tested on: HIV-1 vector carrying WT IN; conditions: read-out: EC50 WT; HOS cells, vector harboring WT IN; cited from earlier work
[2] = tested on: HIV-1 vector carrying N155H IN mutant; conditions: cited from earlier work; for FC, fold change relative to WT, N155H: EC50 of mutant/EC50 of WT; for EC50: read-out: EC50 N155H, HOS cells, vector harboring N155H IN
[3] = tested on: HIV-1 vector carrying Y143R IN mutant; conditions: cited from earlier work; for FC, fold change relative to WT, Y143R: EC50 of mutant/EC50 of WT; for EC50: read-out: EC50 Y143R, HOS cells, vector harboring Y143R IN
[4] = tested on: human osteosarcoma (HOS) cells; conditions: 50% reduction in the level of ATP in HOS cells; cited from earlier work
[5] = tested on: HIV-1 vector carrying G140S/Q148H IN mutant; conditions: cited from earlier work; for FC, fold change relative to WT, G140S/Q148H: EC50 of mutant/EC50 of WT; for EC50: read-out: EC50 G140S/Q148H, HOS cells, vector harboring G140S/Q148H IN
[6] = target: T1, HIV-1 IN (Human immunodeficiency virus type 1 group M subtype B, UniProt P12497); assay: in vitro IN assay, strand transfer; format: biochemical
[7] = target: T1, HIV-1 IN; assay: in vitro IN assay, 3′-processing; format: biochemical
[8] = tested on: HIV-1 vector carrying E92Q IN mutant; conditions: cited from earlier work; for EC50: read-out: EC50 E92Q, vector harboring E92Q IN
[9] = tested on: HIV-1 vector carrying T66I IN mutant; conditions: cited from earlier work; for EC50: read-out: EC50 T66I, vector harboring T66I IN
[10] = tested on: HIV-1 vector carrying G118R IN mutant; conditions: cited from earlier work; for EC50: read-out: EC50 G118R, vector harboring G118R IN
[11] = tested on: HIV-1 vector carrying R263K IN mutant; conditions: cited from earlier work; for EC50: read-out: EC50 R263K, vector harboring R263K IN
[12] = tested on: HIV-1 vector carrying H51Y/R263K IN mutant; conditions: cited from earlier work; for EC50: read-out: EC50 H51Y/R263K, vector harboring H51Y/R263K IN
[13] = tested on: HIV-1 vector carrying H51Y IN mutant; conditions: cited from earlier work; for EC50: read-out: EC50 H51Y, vector harboring H51Y IN
[14] = tested on: HIV-1 vector carrying WT IN; assay: single-round HIV-1 infectivity assay, vector with WT IN; format: cell-based; conditions: EC50 of compound/EC50 of DTG
[15] = tested on: HIV-1 vector carrying N155H IN mutant; assay: single-round HIV-1 infectivity assay, vector with N155H IN; format: cell-based; conditions: for fold improvement relative to DTG, N155H: EC50 of compound/EC50 of DTG; for FC, fold change relative to WT, N155H: EC50 of mutant/EC50 of WT; for EC50: Human immunodeficiency virus 1, HOS, read-out: EC50 N155H
[16] = tested on: HIV-1 vector carrying R263K IN mutant; assay: single-round HIV-1 infectivity assay, vector with R263K IN; format: cell-based; conditions: EC50 of compound/EC50 of DTG
[17] = tested on: HIV-1 vector carrying H51Y/R263K IN mutant; assay: single-round HIV-1 infectivity assay, vector with H51Y/R263K IN; format: cell-based; conditions: EC50 of compound/EC50 of DTG
[18] = tested on: HIV-1 vector carrying G118R IN mutant; assay: single-round HIV-1 infectivity assay, vector with G118R IN; format: cell-based; conditions: EC50 of compound/EC50 of DTG
[19] = tested on: HIV-1 vector carrying G140S/Q148H IN mutant; assay: single-round HIV-1 infectivity assay, vector with G140S/Q148H IN; format: cell-based; conditions: for FC, fold change relative to WT, G140S/Q148H: EC50 of mutant/EC50 of WT; for EC50: Human immunodeficiency virus 1, HOS, read-out: EC50 G140S/Q148H
[20] = tested on: HIV-1 vector carrying Y143R IN mutant; assay: single-round HIV-1 infectivity assay, vector with Y143R IN; format: cell-based; conditions: for FC, fold change relative to WT, Y143R: EC50 of mutant/EC50 of WT; for EC50: Human immunodeficiency virus 1, HOS, read-out: EC50 Y143R
[21] = in vitro; conditions: human
[22] = tested on: HIV-1 vector carrying T66I IN mutant; assay: single-round HIV-1 infectivity assay, vector with T66I IN; format: cell-based; conditions: EC50 of compound/EC50 of DTG
[23] = tested on: HIV-1 vector carrying E92Q IN mutant; assay: single-round HIV-1 infectivity assay, vector with E92Q IN; format: cell-based; conditions: EC50 of compound/EC50 of DTG
[24] = tested on: HIV-1 vector carrying H51Y IN mutant; assay: single-round HIV-1 infectivity assay, vector with H51Y IN; format: cell-based; conditions: EC50 of compound/EC50 of DTG

SMILES: O=C(NCc1ccc(F)cc1F)c1c(O)c2cccnc2n(O)c1=O [5′a]
EC50 [1]: 6.2 ± 2.9 nM
FC, fold change relative to WT, N155H [2]: 5 ×
EC50 [2]: 31 ± 8 nM
FC, fold change relative to WT, Y143R [3]: 2 ×
EC50 [3]: 11 ± 2 nM
CC50 [4]: 137000 ± 20000 nM
FC, fold change relative to WT, G140S/Q148H [5]: 50 ×
EC50 [5]: 308 ± 125 nM

SMILES: Nc1c(C(=O)NCc2ccc(F)cc2F)c(=O)n(O)c2ncccc12 [5′d]
EC50 [1]: 1.1 ± 0.7 nM
CC50 [4]: > 250000 nM

IC50 ([6]; ST IC50, as stated in text): < 10 nM
SMILES: Nc1c(C(=O)NCc2ccc(F)cc2F)c(=O)n(O)c2ncc(/C=C/C(=O)NCCO)cc12 [6o, (E)-4-Amino-N-(2,4-difluorobenzyl)-1-hydroxy-6-(3-((2-hydroxyethyl)amino)-3-oxoprop-1-en-1-yl)-2-oxo-1,2-dihydro-1,8-naphthyridine-3-carboxamide]

IC50 [7]: > 333000 nM
SMILES: COC(=O)CNc1c(C(=O)NCc2ccc(F)cc2F)c(=O)n(O)c2nc(N3CCOCC3)ccc12 [5i, Methyl 2-((3-((2,4-Difluorobenzyl)carbamoyl)-1-hydroxy-7-morpholino-2-oxo-1,2-dihydro-1,8-naphthyridin-4-yl)amino)acetate]

SMILES: C[C@@H]1CCO[C@H]2Cn3cc(C(=O)NCc4ccc(F)cc4F)c(=O)c(O)c3C(=O)N12 [DTG (3), dolutegravir]
EC50 [8]: 2.3 ± 0.4 nM
EC50 [9]: 0.9 ± 0.8 nM
EC50 [1]: 1.6 ± 0.9 nM
EC50 [2]: 3.6 ± 1.3 nM
CC50 [4]: > 250000 nM
EC50 [10]: 13 ± 5 nM
EC50 [11]: 11 ± 3 nM
EC50 [12]: 16 ± 2 nM

IC50 ([6]; ST IC50, as stated in text): ≤ 10 nM
SMILES: Nc1c(C(=O)NCc2ccc(F)cc2F)c(=O)n(O)c2ncc(CCC(=O)O)cc12 [6i, 3-(5-Amino-6-((2,4-difluorobenzyl)carbamoyl)-8-hydroxy-7-oxo-7,8-dihydro-1,8-naphthyridin-3-yl)propanoic Acid]

IC50 ([6]; ST IC50, as stated in text): ≤ 10 nM
SMILES: CC(=O)OCCCc1cnc2c(c1)c(N)c(C(=O)NCc1ccc(F)cc1F)c(=O)n2O [6b, 3-(5-Amino-6-((2,4-difluorobenzyl)carbamoyl)-8-hydroxy-7-oxo-7,8-dihydro-1,8-naphthyridin-3-yl)propyl Acetate]

IC50 ([6]; ST IC50, as stated in text): < 10 nM
SMILES: Nc1c(C(=O)NCc2ccc(F)cc2F)c(=O)n(O)c2ncc(CCC(=O)NCCO)cc12 [6n, 4-Amino-N-(2,4-difluorobenzyl)-1-hydroxy-6-(3-((2-hydroxyethyl)amino)-3-oxopropyl)-2-oxo-1,2-dihydro-1,8-naphthyridine-3-carboxamide]

SMILES: COc1cc2c(cc1Cc1cccc(Cl)c1F)c(=O)c(C(=O)O)cn2[C@H](CO)C(C)C [EVG (2), elvitegravir]
FC, fold change relative to WT, E92Q ([8]; EC50 of mutant/EC50 of WT): 24 ×
EC50 [8]: 154 ± 34 nM
FC, fold change relative to WT, T66I ([9]; EC50 of mutant/EC50 of WT): 10 ×
EC50 [9]: 66 ± 1 nM
EC50 [1]: 6.4 ± 0.8 nM
FC, fold change relative to WT, H51Y ([13]; EC50 of mutant/EC50 of WT): 0.7 ×
EC50 [13]: 4.5 ± 2.1 nM
FC, fold change relative to WT, N155H [2]: 14 ×
EC50 [2]: 90 ± 18 nM
FC, fold change relative to WT, Y143R [3]: 1 ×
EC50 [3]: 7.9 ± 2.3 nM
CC50 [4]: > 250000 nM
FC, fold change relative to WT, G118R ([10]; EC50 of mutant/EC50 of WT): 3 ×
EC50 [10]: 21 ± 10 nM
FC, fold change relative to WT, R263K ([11]; EC50 of mutant/EC50 of WT): 2 ×
EC50 [11]: 10 ± 6 nM
FC, fold change relative to WT, H51Y/R263K ([12]; EC50 of mutant/EC50 of WT): 8 ×
EC50 [12]: 53 ± 18 nM
FC, fold change relative to WT, G140S/Q148H [5]: 891 ×
EC50 [5]: 5700 ± 1100 nM

SMILES: Cc1nnc(C(=O)NC(C)(C)c2nc(C(=O)NCc3ccc(F)cc3)c(O)c(=O)n2C)o1 [RAL (1), raltegravir]
EC50 [8]: 30 ± 10 nM
EC50 [9]: 2.8 ± 0.4 nM
EC50 [1]: 4 ± 2 nM
EC50 [13]: 3.4 ± 0.2 nM
CC50 [4]: > 250000 nM
EC50 [10]: 36 ± 5 nM
EC50 [11]: 5.7 ± 2.3 nM
EC50 [12]: 6 ± 2.3 nM

SMILES: Nc1c(C(=O)NCc2ccc(F)cc2F)c(=O)n(O)c2ncc(CCCCCO)cc12 [6′b]
fold improvement relative to DTG, WT [14]: 1.3 ± 0.2 (0.81×)
fold improvement relative to DTG, N155H [15]: 2.4 ± 0.8 (0.67×)
fold improvement relative to DTG, R263K [16]: 2.6 ± 0.1 (0.24×)
CC50 [4]: > 250000 nM
fold improvement relative to DTG, H51Y/R263K [17]: 2.6 ± 1.4 (0.16×)
fold improvement relative to DTG, G118R [18]: 5.3 ± 1.6 (0.41×)

SMILES: COC(=O)CNc1c(C(=O)NCc2ccc(F)cc2F)c(=O)n(O)c2ncccc12 [5′g]
FC, fold change relative to WT, G140S/Q148H [19]: 9 ×
EC50 [19]: 36 ± 16 nM
FC, fold change relative to WT, N155H [15]: 5 ×
EC50 [15]: 19 ± 7 nM
FC, fold change relative to WT, Y143R [20]: 1 ×
EC50 [20]: 4.6 ± 2.2 nM

SMILES: Nc1c(C(=O)NCc2ccc(F)cc2F)c(=O)n(O)c2ncc(CCCCCCOC(=O)c3ccccc3)cc12 [6c, 6-(5-Amino-6-((2,4-difluorobenzyl)carbamoyl)-8-hydroxy-7-oxo-7,8-dihydro-1,8-naphthyridin-3-yl)hexyl Benzoate]
IC50 ([6]; in vitro IC50 ST, gel-based protocol, Mg2+ cofactor): 3300 ± 600 nM
FC, fold change relative to WT, G140S/Q148H [19]: 4 ×
EC50 [19]: 21 ± 7.8 nM
FC, fold change relative to WT, N155H [15]: 1 ×
EC50 [15]: 5.4 ± 1.9 nM
CC50 [21]: 14400 ± 4800 nM
FC, fold change relative to WT, Y143R [20]: 0.7 ×
EC50 [20]: 3.5 ± 1.2 nM

SMILES: COC(=O)CCc1cnc2c(c1)c(N)c(C(=O)NCc1ccc(F)cc1F)c(=O)n2O [6p, Methyl 3-(5-Amino-6-((2,4-difluorobenzyl)carbamoyl)-8-hydroxy-7-oxo-7,8-dihydro-1,8-naphthyridin-3-yl)propanoate]
IC50 ([6]; ST IC50, as stated in text): ≤ 10 nM
fold improvement relative to DTG, WT [14]: 0.67 ± 0.15 (0.42×)
fold improvement relative to DTG, G140S/Q148H ([19]; EC50 of compound/EC50 of DTG): 5.3 ± 1.8 (0.91×)
fold improvement relative to DTG, N155H [15]: 2.3 ± 0.2 (0.64×)
fold improvement relative to DTG, R263K [16]: 0.5 ± 0.0 (0.05×)
fold improvement relative to DTG, T66I [22]: 0.53 ± 0.06 (0.59×)
fold improvement relative to DTG, H51Y/R263K [17]: 2.4 ± 0.8 (0.15×)
fold improvement relative to DTG, E92Q [23]: 2.0 ± 1.1 (0.87×)
fold improvement relative to DTG, G118R [18]: 4.8 ± 1.5 (0.37×)
fold improvement relative to DTG, Y143R ([20]; EC50 of compound/EC50 of DTG): 0.67 ± 0.23 (0.16×)
fold improvement relative to DTG, H51Y [24]: 0.63 ± 0.30 (0.20×)

IC50 [7]: > 333000 nM
SMILES: COC(=O)CNc1c(C(=O)NCc2ccc(F)cc2F)c(=O)n(O)c2nc(N3CCCCC3)ccc12 [5h, Methyl 2-((3-((2,4-Difluorobenzyl)carbamoyl)-1-hydroxy-2-oxo-7-(piperidin-1-yl)-1,2-dihydro-1,8-naphthyridin-4-yl)amino)acetate]
